Experimental data published in patent US4521422A, “Aryl and heteroaryl[7-(aryl and heteroaryl)pyrazolo[1,5-a]pyrimidin-3-yl]methanones” (American Cyanamid Company, priority 1984, dated 1985).

Each compound was assayed on Clonic Seizures Caused by Pentylenetetrazole in Rats (assay: Protection against clonic seizures caused by pentylenetetrazole in rats). Settings: Rattus norvegicus; dose 25.0 mg/kg, oral or i.p.; pentylenetetrazole 23 mg/kg i.v. at 30 or 60 min; read-out: % of Rats Protected.
Format: in vivo
Method: The anti-anxiety and anticonvulsant properties of the novel compounds of the present invention have been established in a test which indicates anxiolytic and antiepileptic activity by the measure of protection from convulsions resulting from the administration of pentylenetetrazole. Single or graded dose levels of the test compounds were administered orally or intraperitoneally in a 2% starch vehicle, containing 0.5% v/v polyethylene glycol and one drop of Polysorbate 80 to groups of at least 4 rats. At 30 or 60 minutes, the rats were treated intravenously with pentylenetetrazole at a dose of 23 mg/kg of body weight. This dose is estimated to cause clonic seizures in 99% of unprotected rats. It has been reported [R. T. Hill and D. H. Tedeschi, "Animal Testing and Screening Procedures in Evaluating Psychotropic Drugs" in "An Introduction to Psychopharmacology", Eds. R. R. Rech and K. E. Moore, Raven Press, New York, pp 237-288 (1971)] that there is a high degree of correlation between antagonism of pentylenetetrazole seizures in rats and anti-anxietyor anticonvulsant effects in higher warm-blooded animals.
For `CSc1ccc(-c2ccnc3c(C(=O)c4ccccc4)cnn23)cc1` [[7-[4-(methylthio)phenyl]pyrazolo[1,5-a]pyrimidin-3-yl]phenylmethanone], the responders at 25 mg/kg was 50%.
`Cc1cc(-c2cccc(C(F)(F)F)c2)n2ncc(C(=O)c3ccc(Cl)cc3)c2n1` [(4-chlorophenyl)[5-methyl-7-[3-(trifluoromethyl)phenyl]pyrazolo[1,5-a]pyrimidin-3-yl]methanone] gave a responders at 25 mg/kg of 25%.
In the case of `O=C(c1ccccc1Cl)c1cnn2c(-c3ccncc3)ccnc12` [(2-chlorophenyl)[7-(4-pyridinyl)pyrazolo[1,5-a]pyrimidin-3-yl]methanone], the responders at 25 mg/kg is reported as 25%.
With `Cc1ccccc1C(=O)c1cnn2c(-c3cccnc3)ccnc12` [(2-methylphenyl)[7-(3-pyridinyl)pyrazolo[1,5-a]pyrimidin-3-yl]methanone] the responders at 25 mg/kg was 25%.
With `O=C(c1cccs1)c1cnn2c(-c3cccc(F)c3)ccnc12` [[7-(3-fluorophenyl)pyrazolo[1,5-a]pyrimidin-3-yl]-2-thienylmethanone] the responders at 25 mg/kg was 25%.
With `O=C(c1cccc(Cl)c1)c1cnn2c(-c3ccncc3)ccnc12` [(3-chlorophenyl)[7-(4-pyridinyl)pyrazolo[1,5-a]pyrimidin-3-yl]methanone] the responders at 25 mg/kg was 50%.
Compound `Cc1cnc2c(C(=O)c3ccccc3)cnn2c1-c1cccc(C(F)(F)F)c1` [[6-methyl-7-[3-(trifluoromethyl)phenyl]pyrazolo[1,5-a]pyrimidin-3-yl]phenylmethanone] has a responders at 25 mg/kg of 25%.
Work on `CCOc1ccc(C(=O)c2cnn3c(-c4cccnc4)ccnc23)cc1` [(4-ethoxyphenyl)[7-(3-pyridinyl)pyrazolo[1,5-a]pyrimidin-3-yl]methanone] yielded a responders at 25 mg/kg of 25%.
In the case of `O=C(c1cccc(Cl)c1)c1cnn2c(-c3cccnc3)ccnc12` [(3-chlorophenyl)[7-(3-pyridinyl)pyrazolo[1,5-a]pyrimidin-3-yl]methanone], the responders at 25 mg/kg is reported as 50%.
With `O=C(c1cccc(C(F)(F)F)c1)c1cnn2c(-c3ccc(F)cc3)ccnc12` [[7-(4-fluorophenyl)pyrazolo[1,5-a]pyrimidin-3-yl][3-(trifluoromethyl)phenyl]methanone] the responders at 25 mg/kg was 25%.
`COc1ccc(C(=O)c2cnn3c(-c4ccncc4)ccnc23)cc1` [(4-methoxyphenyl)[7-(4-pyridinyl)pyrazolo[1,5-a]pyrimidin-3-yl]methanone] was tested, and the responders at 25 mg/kg was 25%.
In the case of `Cc1ccccc1C(=O)c1cnn2c(-c3ccc(C(F)(F)F)cc3)ccnc12` [(2-methylphenyl)[7-[4-(trifluoromethyl)phenyl]pyrazolo[1,5-a]pyrimidin-3-yl]methanone], the responders at 25 mg/kg is reported as 25%.
`Cc1ccc(C(=O)c2cnn3c(-c4cccnc4)ccnc23)s1` [(5-methyl-2-thienyl)[7-(3-pyridinyl)pyrazolo[1,5-a]pyrimidin-3-yl]methanone] was tested, and the responders at 25 mg/kg was 25%.
`O=C(c1cc(Cl)ccc1Cl)c1cnn2c(-c3cccnc3)ccnc12` [(2,5-dichlorophenyl)[7-(3-pyridinyl)pyrazolo[1,5-a]pyrimidin-3-yl]methanone] was tested, and the responders at 25 mg/kg was 25%.
`N#Cc1ccc(-c2ccnc3c(C(=O)c4ccc(F)cc4)cnn23)cc1` [4-[3-(4-fluorobenzoyl)pyrazolo[1,5-a]pyrimidin-7-yl]benzonitrile] gave a responders at 25 mg/kg of 50%.
Compound `O=C(c1ccncc1)c1cnn2c(-c3ccc(F)cc3)ccnc12` [[7-(4-fluorophenyl)pyrazolo[1,5-a]pyrimidin-3-yl]-4-pyridinylmethanone] has a responders at 25 mg/kg of 75%.
Work on `O=C(c1ccc2c(c1)OCO2)c1cnn2c(-c3ccncc3)ccnc12` [1,3-benzodioxol-5-yl[7-(4-pyridinyl)pyrazolo[1,5-a]pyrimidin-3-yl]methanone] yielded a responders at 25 mg/kg of 25%.
Work on `O=C(c1cccc(Cl)c1)c1cnn2c(-c3ccc(F)cc3)ccnc12` [(3-chlorophenyl)[7-(4-fluorophenyl)pyrazolo[1,5-a]pyrimidin-3-yl]methanone] yielded a responders at 25 mg/kg of 25%.
Work on `O=C(c1ccc(C(F)(F)F)cc1)c1cnn2c(-c3ccc(Cl)c(Cl)c3)ccnc12` [[7-(3,4-dichlorophenyl)pyrazolo[1,5-a]pyrimidin-3-yl][4-(trifluoromethyl)phenyl]methanone] yielded a responders at 25 mg/kg of 50%.
For `COc1ccc(C(=O)c2cnn3c(-c4ccncc4)ccnc23)cc1OC` [(3,4-dimethoxyphenyl)[7-(4-pyridinyl)pyrazolo[1,5-a]pyrimidin-3-yl]methanone], the responders at 25 mg/kg was 50%.
`COc1ccc(C(=O)c2cnn3c(-c4ccc[n+]([O-])c4)ccnc23)cc1` [(4-Methoxyphenyl)[7-(3-pyridinyl)pyrazolo[1,5-a]pyrimidin-3-yl]methanone, pyridine-1-oxide] was tested, and the responders at 25 mg/kg was 25%.
In the case of `Cc1nn2c(-c3ccncc3)ccnc2c1C(=O)c1ccccc1` [[2-methyl-7-(4-pyridinyl)pyrazolo[1,5-a]pyrimidin-3-yl]phenylmethanone], the responders at 25 mg/kg is reported as 25%.
`O=C(c1ccsc1)c1cnn2c(-c3cccc(C(F)(F)F)c3)ccnc12` [3-thienyl[7-[3-(trifluoromethyl)phenyl]pyrazolo[1,5-a]pyrimidin-3-yl]methanone] showed a responders at 25 mg/kg of 75%.
For `O=C(c1ccc2ccccc2c1)c1cnn2c(-c3cccnc3)ccnc12` [2-naphthalenyl[7-(3-pyridinyl)pyrazolo[1,5-a]pyrimidin-3-yl]methanone], the responders at 25 mg/kg was 25%.
With `COc1ccccc1C(=O)c1cnn2c(-c3ccc(F)cc3)ccnc12` [[7-(4-fluorophenyl)pyrazolo[1,5-a]pyrimidin-3-yl](2-methoxyphenyl)methanone] the responders at 25 mg/kg was 50%.
Work on `O=C(c1cccs1)c1cnn2c(-c3ccc(C(F)(F)F)cc3)ccnc12` [2-thienyl[7-[4-(trifluoromethyl)phenyl]pyrazolo[1,5-a]pyrimidin-3-yl]methanone] yielded a responders at 25 mg/kg of 25%.
Work on `O=C(c1ccc(F)cc1)c1cnn2c(-c3ccc(C(F)(F)F)cc3)ccnc12` [(4-fluorophenyl)[7-[4-(trifluoromethyl)phenyl]pyrazolo[1,5-a]pyrimidin-3-yl]methanone] yielded a responders at 25 mg/kg of 50%.
With `COc1ccc(C(=O)c2cnn3c(-c4cc(OC)c(OC)c(OC)c4)ccnc23)cc1OC` [(3,4-dimethoxyphenyl)[7-(3,4,5-trimethoxyphenyl)pyrazolo[1,5-a]pyrimidin-3-yl]methanone] the responders at 25 mg/kg was 75%.
`COc1ccccc1C(=O)c1cnn2c(-c3cccnc3)ccnc12` [(2-methoxyphenyl)[7-(3-pyridinyl)pyrazolo[1,5-a]pyrimidin-3-yl]methanone] gave a responders at 25 mg/kg of 75%.
Compound `Cc1cc(-c2cccc(C(F)(F)F)c2)n2ncc(C(=O)c3ccc(F)cc3)c2n1` [(4-fluorophenyl)[5-methyl-7-[3-(trifluoromethyl)phenyl]pyrazolo[1,5-a]pyrimidin-3-yl]methanone] has a responders at 25 mg/kg of 25%.
Work on `O=C(c1ccccn1)c1cnn2c(-c3ccc(C(F)(F)F)cc3)ccnc12` [2-pyridinyl[7-[4-(trifluoromethyl)phenyl]pyrazolo[1,5-a]pyrimidin-3-yl]methanone] yielded a responders at 25 mg/kg of 25%.
With `COc1cc(C(=O)c2cnn3c(-c4cccnc4)ccnc23)cc(OC)c1OC` [[7-(3-pyridinyl)pyrazolo[1,5-a]pyrimidin-3-yl](3,4,5-trimethoxyphenyl)methanone] the responders at 25 mg/kg was 25%.
With `Cc1cccc(C(=O)c2cnn3c(-c4ccncc4)ccnc23)c1` [(3-methylphenyl)[7-(4-pyridinyl)pyrazolo[1,5-a]pyrimidin-3-yl]methanone] the responders at 25 mg/kg was 100%.
Work on `O=C(c1ccc(C(F)(F)F)cc1)c1cnn2c(-c3ccc(C(F)(F)F)cc3)ccnc12` [[4-(trifluoromethyl)phenyl][7-[4-(trifluoromethyl)phenyl]pyrazolo[1,5-a]pyrimidin-3-yl]methanone] yielded a responders at 25 mg/kg of 25%.
In the case of `O=C(c1cc(Cl)ccc1Cl)c1cnn2c(-c3ccncc3)ccnc12` [(2,5-dichlorophenyl)[7-(4-pyridinyl)pyrazolo[1,5-a]pyrimidin-3-yl]methanone], the responders at 25 mg/kg is reported as 25%.
`O=C(c1ccccc1)c1cnn2c(-c3ccc[n+]([O-])c3)ccnc12` [Phenyl[7-(3-pyridinyl)pyrazolo[1,5-a]pyrimidin-3-yl]methanone, pyridine-1-oxide] was tested, and the responders at 25 mg/kg was 25%.
`O=C(c1cc(Cl)ccc1Cl)c1cnn2c(-c3ccc(F)cc3)ccnc12` [(2,5-dichlorophenyl)[7-(4-fluorophenyl)pyrazolo[1,5-a]pyrimidin-3-yl]methanone] showed a responders at 25 mg/kg of 25%.
For `Cc1cnc2c(C(=O)c3ccc(F)cc3)cnn2c1-c1cccnc1` [(4-fluorophenyl)[6-methyl-7-(3-pyridinyl)pyrazolo[1,5-a]pyrimidin-3-yl]methanone], the responders at 25 mg/kg was 75%.
For `COc1cc(C(=O)c2cnn3c(-c4ccncc4)ccnc23)cc(OC)c1OC` [[7-(4-pyridinyl)pyrazolo[1,5-a]pyrimidin-3-yl](3,4,5-trimethoxyphenyl)methanone], the responders at 25 mg/kg was 25%.
Compound `COc1cccc(C(=O)c2cnn3c(-c4ccncc4)ccnc23)c1` [(3-methoxyphenyl)[7-(4-pyridinyl)pyrazolo[1,5-a]pyrimidin-3-yl]methanone] has a responders at 25 mg/kg of 50%.
Work on `CN(C)c1ccc(C(=O)c2cnn3c(-c4ccncc4)ccnc23)cc1` [[4-(dimethylamino)phenyl][7-(4-pyridinyl)pyrazolo[1,5-a]pyrimidin-3-yl]methanone] yielded a responders at 25 mg/kg of 75%.
In the case of `Cc1ccccc1C(=O)c1cnn2c(-c3ccncc3)ccnc12` [(2-methylphenyl)[7-(4-pyridinyl)pyrazolo[1,5-a]pyrimidin-3-yl]methanone], the responders at 25 mg/kg is reported as 25%.
`O=C(c1ccsc1)c1cnn2c(-c3ccncc3)ccnc12` [[7-(4-pyridinyl)pyrazolo[1,5-a]pyrimidin-3-yl]-3-thienylmethanone] gave a responders at 25 mg/kg of 50%.
